Patent US11046672B2, “Indolinones compounds and their use in the treatment of fibrotic diseases” (RESPIVERT LIMITED, priority 2015, dated 2021)
Where two headings read alike, the source gives them in different places. Blank lines part the entries; values can stand above or below the molecule they belong to.

Tests used:
PDGFRβ [1] = target: T1, PDGFRβ (Homo sapiens (Human), UniProt P09619); test: PDGF-BB induced phosphorylation of PDGFRβ in fibroblasts (MRC5 cells, HTRF); type: cell-based; conditions: MRC5 cells; n = 1 unless otherwise indicated; read-out: PDGFBB-induced PDGFRβ phosphorylation in MRC5 cells (IC50)
PAMPA permeability assay = type: in vitro ADME; conditions: PAMPA; for recovery at 5 hr, 10 μM: pH 7, PAMPA, donor and acceptor compartments; for Papp at 5 h, 10 μM: pH 7, pH 7, 10 μM
[2] = Pharmacokinetic measurements in rats (intravenous and intra-tracheal dosing); type: in vivo; conditions: rat; for concentration at 0.1 h / concentration at 1.5 h / concentration at 24 h / Kp at 0.1 h / Kp at 1.5 h / Kp at 24 h: male, CD; for concentration at 0.1 h / concentration at 1.5 h / concentration at 24 h: lung, read-out: lung concentration (nM) at time (h); for Kp at 0.1 h / Kp at 1.5 h / Kp at 24 h: lung/plasma
PDGFRβ [3] = target: T1, PDGFRβ; conditions: read-out: Ki PDGFRβ; mean, n = 2 unless otherwise indicated
MRC5 cells = test: Cell viability assay in MRC5 cells (MTT)

T1 sequence (P09619 33-1106): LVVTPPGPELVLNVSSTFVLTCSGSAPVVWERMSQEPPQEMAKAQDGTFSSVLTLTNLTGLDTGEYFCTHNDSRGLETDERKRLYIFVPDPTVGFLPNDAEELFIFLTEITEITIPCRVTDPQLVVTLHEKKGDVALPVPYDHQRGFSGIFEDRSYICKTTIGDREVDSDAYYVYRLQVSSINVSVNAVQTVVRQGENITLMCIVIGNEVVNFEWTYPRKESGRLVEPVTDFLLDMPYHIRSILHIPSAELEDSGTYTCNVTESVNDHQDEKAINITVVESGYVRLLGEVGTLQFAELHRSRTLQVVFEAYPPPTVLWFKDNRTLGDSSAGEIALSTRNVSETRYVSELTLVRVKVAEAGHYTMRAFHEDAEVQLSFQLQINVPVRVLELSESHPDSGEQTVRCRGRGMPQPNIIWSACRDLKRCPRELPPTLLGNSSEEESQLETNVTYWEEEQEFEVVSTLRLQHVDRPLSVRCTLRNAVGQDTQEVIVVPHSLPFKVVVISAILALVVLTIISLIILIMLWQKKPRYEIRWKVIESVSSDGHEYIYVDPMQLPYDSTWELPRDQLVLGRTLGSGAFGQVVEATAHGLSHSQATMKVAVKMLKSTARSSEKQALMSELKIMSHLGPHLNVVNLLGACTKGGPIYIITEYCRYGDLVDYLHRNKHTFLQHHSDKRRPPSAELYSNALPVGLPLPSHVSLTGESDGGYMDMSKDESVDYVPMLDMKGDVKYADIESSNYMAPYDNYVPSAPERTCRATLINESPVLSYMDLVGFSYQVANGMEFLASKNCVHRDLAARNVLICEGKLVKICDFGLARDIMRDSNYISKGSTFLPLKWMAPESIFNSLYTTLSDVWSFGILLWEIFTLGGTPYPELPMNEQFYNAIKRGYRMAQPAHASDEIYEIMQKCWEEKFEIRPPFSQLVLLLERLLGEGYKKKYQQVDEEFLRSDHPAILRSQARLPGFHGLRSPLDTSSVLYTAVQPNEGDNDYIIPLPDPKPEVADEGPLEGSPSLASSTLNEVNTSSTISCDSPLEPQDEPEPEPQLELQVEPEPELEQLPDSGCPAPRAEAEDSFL

SMILES: COC(=O)c1ccc2c(c1)NC(=O)/C2=C(\Nc1ccc(S(=O)(=O)NOCCN(C)C)cc1)c1ccccc1 [Example 15]
- IC50 (PDGFRβ [1]): 19.9 nM
- recovery at 5 hr, 10 μM (PAMPA permeability assay): 37.6%
- Papp at 5 h, 10 μM (PAMPA permeability assay): 0.0756 ×10⁻⁶ cm/s
- concentration at 0.1 h ([2]; iv, i.v. dosing, 0.1 h): 501 nM
- concentration at 1.5 h ([2]; iv, i.v. dosing, 1.5 h): 209 nM
- concentration at 24 h ([2]; iv, i.v. dosing, 24 h): 66 nM
- concentration at 0.1 h ([2]; other: intra-tracheal, i.t. dosing, 0.1 h): 3430 nM
- concentration at 1.5 h ([2]; other: intra-tracheal, i.t. dosing, 1.5 h): 1370 nM
- concentration at 24 h ([2]; other: intra-tracheal, i.t. dosing, 24 h): 135 nM
- Kp at 0.1 h ([2]; iv, i.v. dosing, 0.1 h, read-out: lung/plasma ratio at time(h)): 55
- Kp at 1.5 h ([2]; iv, i.v. dosing, 1.5 h, read-out: lung/plasma ratio at time(h)): 62
- Kp at 24 h ([2]; iv, i.v. dosing, 24 h, read-out: lung/plasma ratio at time(h)): 103
- Kp at 0.1 h ([2]; other: intra-tracheal, i.t. dosing, 0.1 h, read-out: lung/plasma conc ratio at time(h)): 177
- Kp at 1.5 h ([2]; other: intra-tracheal, i.t. dosing, 1.5 h, read-out: lung/plasma conc ratio at time(h)): 884
- Kp at 24 h ([2]; other: intra-tracheal, i.t. dosing, 24 h, read-out: lung/plasma conc ratio at time(h)): 314
- Lung conc i.t./i.v. Ratio at time (h) ([2]; 0.1 h): 6.9
- Lung conc i.t./i.v. Ratio at time (h) ([2]; 1.5 h): 6.6
- Lung conc i.t./i.v. Ratio at time (h) ([2]; 24 h): 2.0
- BAL % administered dose at time (h) ([2]; i.t. dosing, 0.1 h): 2.4%
- BAL % administered dose at time (h) ([2]; i.t. dosing, 1.5 h): 0.6%
- BAL % administered dose at time (h) ([2]; i.t. dosing, 24 h): 0.1%
- BAL % administered dose at time (h) ([2]; i.v. dosing, 0.1 h): 0.09%
- BAL % administered dose at time (h) ([2]; i.v. dosing, 1.5 h): 0.02%
- BAL % administered dose at time (h) ([2]; i.v. dosing, 24 h): 0.01%
- Ki (PDGFRβ [3]): 21.7 nM
- Cell viability at 100 nM (%) (MRC5 cells): 106.9%
- Cell viability at 300 nM (%) (MRC5 cells): 99%
- Cell viability at 1000 nM (%) (MRC5 cells): 97.5%

SMILES: COC(=O)c1cc2c(cc1C)/C(=C(/Nc1ccc(C(=O)NOCCN3CCN(C)CC3)c(F)c1)c1ccccc1)C(=O)N2 [Example 32]
- IC50 (PDGFRβ [1]): 3.09 nM
- recovery at 5 hr, 10 μM (PAMPA permeability assay): 42.8%
- Papp at 5 h, 10 μM (PAMPA permeability assay): 0.0192 ×10⁻⁶ cm/s
- Ki (PDGFRβ [3]): 4.92 nM
- Cell viability at 100 nM (%) (MRC5 cells): 93.5%
- Cell viability at 300 nM (%) (MRC5 cells): 82.3%
- Cell viability at 1000 nM (%) (MRC5 cells): 66.3%

SMILES: COC(=O)c1ccc2c(c1)NC(=O)/C2=C(\Nc1ccc(C(=O)NOCCN2CCN(C)CC2)c(F)c1)c1ccccc1 [Example 33]
- IC50 (PDGFRβ [1]): 8.99 nM
- recovery at 5 hr, 10 μM (PAMPA permeability assay): 71.9%
- Papp at 5 h, 10 μM (PAMPA permeability assay): 0.00743 ×10⁻⁶ cm/s
- Ki (PDGFRβ [3]): 8.47 nM
- Cell viability at 100 nM (%) (MRC5 cells): 110.7%
- Cell viability at 300 nM (%) (MRC5 cells): 101.3%
- Cell viability at 1000 nM (%) (MRC5 cells): 91.3%

SMILES: CCN1CCN(CCONC(=O)c2ccc(N/C(=C3\C(=O)Nc4cc(C(=O)OC)c(C)cc43)c3ccccc3)cc2)CC1 [Example 36]
- IC50 (PDGFRβ [1]): 9.44 nM
- recovery at 5 hr, 10 μM (PAMPA permeability assay): 53.1%
- Papp at 5 h, 10 μM (PAMPA permeability assay): 0.0301 ×10⁻⁶ cm/s
- Ki (PDGFRβ [3]): 8.46 nM
- Cell viability at 100 nM (%) (MRC5 cells): 108.8%
- Cell viability at 300 nM (%) (MRC5 cells): 93%
- Cell viability at 1000 nM (%) (MRC5 cells): 65.9%

SMILES: COC(=O)c1ccc2c(c1)NC(=O)/C2=C(\Nc1ccc(C(=O)NOCCN2CCNC(=O)C2)cc1)c1ccccc1 [Example 42]
- IC50 (PDGFRβ [1]): 56.3 nM
- recovery at 5 hr, 10 μM (PAMPA permeability assay): 76.8%
- Papp at 5 h, 10 μM (PAMPA permeability assay): 0.0264 ×10⁻⁶ cm/s
- Ki (PDGFRβ [3]): 7.06 nM
- Cell viability at 100 nM (%) (MRC5 cells): 114.5%
- Cell viability at 300 nM (%) (MRC5 cells): 109.6%
- Cell viability at 1000 nM (%) (MRC5 cells): 118.3%

SMILES: COC(=O)c1ccc2c(c1)NC(=O)/C2=C(\Nc1ccc(C(=O)NOCCN2CCC(C#N)CC2)cc1)c1ccccc1 [Example 43]
- IC50 (PDGFRβ [1]): 25.7 nM
- recovery at 5 hr, 10 μM (PAMPA permeability assay): 75.3%
- Papp at 5 h, 10 μM (PAMPA permeability assay): 0.00798 ×10⁻⁶ cm/s
- Ki (PDGFRβ [3]): 32.4 nM
- Cell viability at 100 nM (%) (MRC5 cells): 96.5%
- Cell viability at 300 nM (%) (MRC5 cells): 91.8%
- Cell viability at 1000 nM (%) (MRC5 cells): 83.9%

The remaining molecules from weak to strong by IC50 (PDGFRβ [1]), led by results:

- IC50 (PDGFRβ [1]): 37.4 nM
- recovery at 5 hr, 10 μM (PAMPA permeability assay): 59.6%
- Papp at 5 h, 10 μM (PAMPA permeability assay): 0.00258 ×10⁻⁶ cm/s
- Ki (PDGFRβ [3]): 15 nM
SMILES: COC(=O)c1ccc2c(c1)NC(=O)/C2=C(\Nc1ccc(C(=O)NOCCN2CCS(=O)(=O)CC2)cc1)c1ccccc1 [Example 41]
- Cell viability at 100 nM (%) (MRC5 cells): 112.3%
- Cell viability at 300 nM (%) (MRC5 cells): 96.1%
- Cell viability at 1000 nM (%) (MRC5 cells): 86.8%

- IC50 (PDGFRβ [1]): 29.2 nM
- recovery at 5 hr, 10 μM (PAMPA permeability assay): 75%
- Papp at 5 h, 10 μM (PAMPA permeability assay): 0.00954 ×10⁻⁶ cm/s
- Ki (PDGFRβ [3]): 7.66 nM
SMILES: COC(=O)c1ccc2c(c1)NC(=O)/C2=C(\Nc1ccc(C(=O)NOCCN2CCC(O)CC2)cc1)c1ccccc1 [Example 40]
- Cell viability at 100 nM (%) (MRC5 cells): 103.8%
- Cell viability at 300 nM (%) (MRC5 cells): 103.8%
- Cell viability at 1000 nM (%) (MRC5 cells): 110.5%

- IC50 (PDGFRβ [1]): 14.6 nM
- recovery at 5 hr, 10 μM (PAMPA permeability assay): 55.4%
- Papp at 5 h, 10 μM (PAMPA permeability assay): 0.00569 ×10⁻⁶ cm/s
- Ki (PDGFRβ [3]): 6.91 nM
SMILES: COC(=O)c1ccc2c(c1)NC(=O)/C2=C(\Nc1ccc(C(=O)NOCCN2CC[C@H](N(C)C)C2)cc1)c1ccccc1 [Example 38]
- Cell viability at 100 nM (%) (MRC5 cells): 89.3%
- Cell viability at 300 nM (%) (MRC5 cells): 90.8%
- Cell viability at 1000 nM (%) (MRC5 cells): 93%
